The text below walks through data of patent publication US20260022142A1, “MACROCYCLIC IMMUNOMODULATORS” (Bristol-Myers Squibb Company, priority 2022, published 2026).

Bridge positions count the residues as written; N and C are the ends. Square brackets hold non-standard residues; d marks the D form. Peptide text beside a SMILES is read from it. * marks the point of attachment. Bip = N[C@@H](Cc1ccc(-c2ccccc2)cc1)C(=O)O; Phe(3-Me) = Cc1cccc(C[C@H](N)C(=O)O)c1; Cha = N[C@@H](CC1CCCCC1)C(=O)O; Carboxymethyl = O=C(O)C*; Orn = NCCC[C@H](N)C(=O)O; Aun = NCCCCCCCCCCC(=O)O; Dab = NCC[C@H](N)C(=O)O; Dap = NC[C@H](N)C(=O)O

In this test the target is T1, PD-1/PD-L1 interaction (PE-labeled human PD-L1-Ig binding to Jurkat cell line over-expressing human PD-1) (Homo sapiens, UniProt Q15116).
T1 construct: expressed in transfected cells; host or cells: Jurkat
T1 sequence (Q15116 25-288): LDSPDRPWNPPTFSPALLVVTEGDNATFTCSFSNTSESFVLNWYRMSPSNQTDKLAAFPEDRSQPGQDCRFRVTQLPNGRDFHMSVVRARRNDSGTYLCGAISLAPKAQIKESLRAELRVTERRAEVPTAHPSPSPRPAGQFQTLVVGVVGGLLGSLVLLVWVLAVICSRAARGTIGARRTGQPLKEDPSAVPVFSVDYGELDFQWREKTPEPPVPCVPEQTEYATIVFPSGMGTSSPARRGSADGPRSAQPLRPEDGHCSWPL
Kind of test: Jurkat-PD-1 Cell Binding High-Content Screening Assay (CBA). In kind it is cell-based. Particulars: Jurkat cell line over-expressing human PD-1; PE-labeled PD-L1-Ig 20 nM final; read-out: Jurkat hPD1-PDL1 IC50. In short, it runs like this: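 Jurkat cells over-expressing human PD-1 (8×10^3 per well, DMEM/10% FCS) preincubated with compound 2 h at 37° C, then PE-labeled human PD-L1-Ig (20 nM final) added for 1 h. Cells fixed with paraformaldehyde, Hoechst-stained, and bound fluorescence quantified by high-content imaging.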
In the case of `Cc1cccc(C[C@@H]2NC(=O)[C@H](CC(=O)O)NC(=O)[C@H](Cc3ccc(OCC(=O)O)cc3)NC(=O)[C@H](CCCNC(=N)N)NC(=O)CSC[C@@H](C(=O)N[C@@H](CCN)C(=O)NCCCCCCCCCCC(=O)O)NC(=O)[C@H]([C@@H](C)O)NC(=O)[C@H](C(C)C)NC(=O)[C@H](CC3CCCCC3)NC(=O)[C@H](CCN)NC(=O)[C@@H](CC(C)C)NC(=O)[C@H](CCCN)NC(=O)[C@H](Cc3ccc(OCC(=O)O)cc3)NC(=O)[C@H](Cc3ccc(-c4ccccc4)cc3)NC(=O)[C@H](Cc3ccc(OCC(=O)O)cc3)NC2=O)c1` [Compound 2085] ({CH2CO}-RY(Carboxymethyl)D[Phe(3-Me)]Y(Carboxymethyl)[Bip]Y(Carboxymethyl)[Orn][dL][Dab][Cha]VTC[Dab][Aun]-OH; thioether N-14), the IC50 worked out at 8.6 nM. Next, `Cc1cccc(C[C@@H]2NC(=O)[C@H](CC(=O)O)NC(=O)[C@H](Cc3ccc(OCC(=O)O)cc3)NC(=O)[C@H]([C@@H](C)O)NC(=O)CSC[C@@H](C(=O)N[C@@H](CCN)C(=O)NCCCCCCCCCCC(=O)O)NC(=O)[C@H]([C@@H](C)O)NC(=O)[C@H](C(C)C)NC(=O)[C@H](CC3CCCCC3)NC(=O)[C@H](CCN)NC(=O)[C@@H](CC(C)C)NC(=O)[C@H](CCCN)NC(=O)[C@H](Cc3ccc(OCC(=O)O)cc3)NC(=O)[C@H](Cc3ccc(-c4ccccc4)cc3)NC(=O)[C@H](Cc3ccc(OCC(=O)O)cc3)NC2=O)c1` [Compound 2086] ({CH2CO}-TY(Carboxymethyl)D[Phe(3-Me)]Y(Carboxymethyl)[Bip]Y(Carboxymethyl)[Orn][dL][Dab][Cha]VTC[Dab][Aun]-OH; thioether N-14): 10.2 nM; `Cc1cccc(C[C@@H]2NC(=O)[C@H](CC(=O)O)NC(=O)[C@H](Cc3ccc(OCC(=O)O)cc3)NC(=O)[C@H](CN)NC(=O)CSC[C@@H](C(=O)N[C@@H](CCN)C(=O)NCCCCCCCCCCC(=O)O)NC(=O)[C@H]([C@@H](C)O)NC(=O)[C@H](C(C)C)NC(=O)[C@H](CC3CCCCC3)NC(=O)[C@H](CCN)NC(=O)[C@@H](CC(C)C)NC(=O)[C@H](CCN)NC(=O)[C@H](Cc3ccc(OCC(=O)O)cc3)NC(=O)[C@H](Cc3ccc(-c4ccccc4)cc3)NC(=O)[C@H](Cc3ccc(O)cc3)NC2=O)c1` [Compound 2087] ({CH2CO}-[Dap]Y(Carboxymethyl)D[Phe(3-Me)]Y[Bip]Y(Carboxymethyl)[Dab][dL][Dab][Cha]VTC[Dab][Aun]-OH; thioether N-14): 15.1 nM; `Cc1cccc(C[C@@H]2NC(=O)[C@H](CC(=O)O)NC(=O)[C@H](Cc3ccc(OCC(=O)O)cc3)NC(=O)[C@H](CN)NC(=O)CSC[C@@H](C(=O)N[C@@H](CCCN)C(=O)NCCCCCCCCCCC(=O)O)NC(=O)[C@H]([C@@H](C)O)NC(=O)[C@H](C(C)C)NC(=O)[C@H](CC3CCCCC3)NC(=O)[C@H](CCN)NC(=O)[C@@H](CC(C)C)NC(=O)[C@H](CCN)NC(=O)[C@H](Cc3ccc(OCC(=O)O)cc3)NC(=O)[C@H](Cc3ccc(-c4ccccc4)cc3)NC(=O)[C@H](Cc3ccc(O)cc3)NC2=O)c1` [Compound 2088] ({CH2CO}-[Dap]Y(Carboxymethyl)D[Phe(3-Me)]Y[Bip]Y(Carboxymethyl)[Dab][dL][Dab][Cha]VTC[Orn][Aun]-OH; thioether N-14): 14.8 nM. As to `Cc1cccc(C[C@@H]2NC(=O)[C@H](CC(=O)O)NC(=O)[C@H](Cc3ccc(OCC(=O)O)cc3)NC(=O)[C@H](Cc3ccc(OCC(=O)O)cc3)NC(=O)CSC[C@@H](C(=O)N[C@@H](CCN)C(=O)NCCCCCCCCCCC(=O)O)NC(=O)[C@H](CO)NC(=O)[C@H](C(C)C)NC(=O)[C@H](CC3CCCCC3)NC(=O)[C@H](CCN)NC(=O)[C@@H](CC(C)C)NC(=O)[C@H](CCCN)NC(=O)[C@H](Cc3ccc(OCC(=O)O)cc3)NC(=O)[C@H](Cc3ccc(-c4ccccc4)cc3)NC(=O)[C@H](C(C)C)NC2=O)c1` [Compound 2089] ({CH2CO}-Y(Carboxymethyl)Y(Carboxymethyl)D[Phe(3-Me)]V[Bip]Y(Carboxymethyl)[Orn][dL][Dab][Cha]VSC[Dab][Aun]-OH; thioether N-14), the IC50 stood at 43.8 nM.

For `Cc1cccc(C[C@@H]2NC(=O)[C@H](CC(=O)O)NC(=O)[C@H](Cc3ccc(OCC(=O)O)cc3)NC(=O)[C@H](CN)NC(=O)CSC[C@@H](C(=O)N[C@@H](CCN)C(=O)NCCCCCCCCCCC(=O)O)NC(=O)[C@H]([C@@H](C)O)NC(=O)[C@H](C(C)C)NC(=O)[C@H](CC3CCCCC3)NC(=O)[C@H](CCN)NC(=O)[C@@H](CC(C)C)NC(=O)[C@H](CCCN)NC(=O)[C@H](Cc3ccc(O)cc3)NC(=O)[C@H](Cc3ccc(-c4ccccc4)cc3)NC(=O)[C@H](Cc3ccc(OCC(=O)O)cc3)NC2=O)c1` [Compound 2090] ({CH2CO}-[Dap]Y(Carboxymethyl)D[Phe(3-Me)]Y(Carboxymethyl)[Bip]Y[Orn][dL][Dab][Cha]VTC[Dab][Aun]-OH; thioether N-14), the concentration for half-maximal inhibition (IC50) came to 18.4 nM.

For the compound `Cc1cccc(C[C@@H]2NC(=O)[C@H](CC(=O)O)NC(=O)[C@H](Cc3ccc(OCC(=O)O)cc3)NC(=O)[C@H](CN)NC(=O)CSC[C@@H](C(=O)N[C@@H](CCN)C(=O)NCCCCCCCCCCC(=O)O)NC(=O)[C@H](CO)NC(=O)[C@H](C(C)C)NC(=O)[C@H](CC3CCCCC3)NC(=O)[C@H](CCN)NC(=O)[C@@H](CC(C)C)NC(=O)[C@H](CCCN)NC(=O)[C@H](Cc3ccc(O)cc3)NC(=O)[C@H](Cc3ccc(-c4ccccc4)cc3)NC(=O)[C@H](Cc3ccc(OCC(=O)O)cc3)NC2=O)c1` [Compound 2091] ({CH2CO}-[Dap]Y(Carboxymethyl)D[Phe(3-Me)]Y(Carboxymethyl)[Bip]Y[Orn][dL][Dab][Cha]VSC[Dab][Aun]-OH; thioether N-14), the IC50 turned out to be 26.1 nM.

With `Cc1cccc(C[C@@H]2NC(=O)[C@H](CC(=O)O)NC(=O)[C@H](Cc3ccc(OCC(=O)O)cc3)NC(=O)[C@H]([C@@H](C)O)NC(=O)CSC[C@@H](C(=O)N[C@@H](CCN)C(=O)NCCCCCCCCCCC(=O)O)NC(=O)[C@H]([C@@H](C)O)NC(=O)[C@H](C(C)C)NC(=O)[C@H](CC3CCCCC3)NC(=O)[C@H](CCN)NC(=O)[C@@H](CC(C)C)NC(=O)[C@H](CCCN)NC(=O)[C@H](Cc3ccc(O)cc3)NC(=O)[C@H](Cc3ccc(-c4ccccc4)cc3)NC(=O)[C@H](Cc3ccc(OCC(=O)O)cc3)NC2=O)c1` [Compound 2092] ({CH2CO}-TY(Carboxymethyl)D[Phe(3-Me)]Y(Carboxymethyl)[Bip]Y[Orn][dL][Dab][Cha]VTC[Dab][Aun]-OH; thioether N-14), the IC50 worked out at 25.1 nM. On to `Cc1cccc(C[C@@H]2NC(=O)[C@H](CC(=O)O)NC(=O)[C@H](Cc3ccc(OCC(=O)O)cc3)NC(=O)[C@H]([C@@H](C)O)NC(=O)CSC[C@@H](C(=O)N[C@@H](CCN)C(=O)NCCCCCCCCCCC(=O)O)NC(=O)[C@H](CO)NC(=O)[C@H](C(C)C)NC(=O)[C@H](CC3CCCCC3)NC(=O)[C@H](CCN)NC(=O)[C@@H](CC(C)C)NC(=O)[C@H](CCCN)NC(=O)[C@H](Cc3ccc(OCC(=O)O)cc3)NC(=O)[C@H](Cc3ccc(-c4ccccc4)cc3)NC(=O)[C@H](Cc3ccc(O)cc3)NC2=O)c1` [Compound 2093] ({CH2CO}-TY(Carboxymethyl)D[Phe(3-Me)]Y[Bip]Y(Carboxymethyl)[Orn][dL][Dab][Cha]VSC[Dab][Aun]-OH; thioether N-14), for which the IC50 was 23.2 nM.

A word on the IC50: it is the concentration that inhibits the measured activity by half.
